According to patent publication US12128035B2, “Activating pyruvate kinase R” (Novo Nordisk Health Care AG, priority 2021, dated 2024):
“Also recorded” adds a separate entry of the source.

Legend:
[1] = test system: Red blood cells from SCD patients; test: Ex vivo Hgb oxygen equilibrium curves in SCD RBCs; assay type: cell-based, human; conditions: 10 μM
Procedure: Red blood cells from SCD patients were used to evaluate the effects of Compound 1 on Hgb affinity for oxygen (i.e., oxygen affinity) and sickling under hypoxic conditions. Cells were incubated at 37° C. for 1, 2, and 3 hr with HEPES buffered saline (HBS) (untreated), HBS+dimethyl sulfoxide (DMSO) (vehicle), or 10 μM Compound 1. To assess oxygen dissociation, Hgb oxygen equilibrium curves were collected during deoxygenation.

[2] = test system: estradiol and testosterone levels; test: Circulating estradiol and testosterone in healthy subjects, 14 days; assay type: in vivo, human; conditions: up to 14 days, 100-300 mg BID or 400 mg QD
Procedure: Effects on circulating levels of estradiol and testosterone in male and female healthy subjects receiving Compound 1 or placebo for a treatment period of 14 days were evaluated. Compound 1 was administered twice daily (BID) at dose levels of 100 mg, 200 mg, and 300 mg, and once daily (QD) at a dose level of 400 mg. Each dosing cohort was comprised of 9 subjects treated with Compound 1 and 3 subjects treated with placebo. Testosterone and estradiol levels were assessed prior to dosing (baseline), and then on days 8, 14 and 17.

[3] = Phase 1 food effect cohort in healthy subjects; assay type: in vivo, human; conditions: 400 mg with and without food
Procedure: Four healthy SAD cohorts were evaluated at doses of 200, 400, 700, and 1000 mg, and four healthy MAD cohorts received 200 to 600 mg total daily doses for 14 days at QD or BID dosing (100 mg BID, 200 mg BID, 300 mg BID, and 400 mg QD). In the food effect (FE) cohort, 10 healthy subjects received 400 mg of Compound 1 QD with and without food. […] FIG. 22 illustrates plasma Compound 1 pharmacokinetics in healthy volunteers following a single dose. […] No significant changes in exposure were observed after 14 days of dosing. Compound 1 exposure under fed/fasted conditions was similar.

[4] = Phase 1: safety (adverse events) in SCD patients; assay type: in vivo, human
Procedure: In the SD cohort, 7 pts (2 males, 5 females, all HbSS) received 700 mg Compound 1 (n=5) or placebo (n=2).
All SCD patients who received a single 700 mg dose of Compound 1 or placebo were monitored for adverse events for 7 days. The incidence of treatment emergent adverse events (TEAEs) in SCD patients receiving Compound 1 (700 mg) or placebo are reported in Table 23. Six TEAEs were reported in 4 patients; all TEAEs were grade 1 and transient. Specifically, six TEAEs were reported in 4 of 7 (57%) patients, including 3 TEAEs (arthralgia, headache, palpitations) in 2 of 5 (40%) pts receiving Compound 1 and 3 TEAEs (back pain, myalgia, pruritis) in 2 of 2 (100%) pts receiving placebo; all TEAEs were grade 1 and transient. […] One possibly related TEAE (palpitations) occurred about 8 hours post dose. No other symptoms were observed, and the palpitations resolved in <1 minute. […] The single 700 mg dose of Compound 1 was considered tolerable, and the first multiple dose SCD cohort was initiated.
Based on data from the MAD1 (300 mg once daily for 14 days), Compound 1 is well-tolerated in patients with SCD. In all, eighteen TEAEs were reported in 7 of 9 patients in the MAD1 (300 mg once daily) cohort (N=9). These included (a) eight Grade 1 TEAEs, including 3 patients c/o headache, 1 each of nausea, constipation, somnolence, increased LDH and increased AST, of which two AEs considered to be possibly related to study treatment were reported by one patient each (1 AE of headache and 1 AE of nausea); (b) six Grade 2 TEAEs, including 3 uncomplicated sickle pain events (in 2 patients), 1 patient with N/V and 1 increased reticulocytes, of which no AEs were considered related to study treatment, all AEs of pain events were considered unrelated and consistent with each patient's SCD pain history, and all AEs were treated with patient's standard home pain medications (no SAE/no hospitalization); and (c) one Grade 4 TEAE of elevated creatine kinase, unrelated to study treatment. Non-treatment-related AEs were consistent with events experienced in this patient population. No treatment-related serious AEs were reported.

[5] = test system: panels of receptors, enzymes, ion channels, and kinases; test: Preclinical safety: arrhythmia risk, mutagenicity, nonspecific binding panels; conditions: in vitro panels
[6] = Phase 1: hematologic and hemolytic laboratory parameters in SCD patients; assay type: in vivo, human; conditions: SCD single 700 mg dose

For O=C([C@H](CO)c1ccccc1)N1CC2=C(C1)CN(S(=O)(=O)c1cnc3c(c1)OCCO3)C2 (single isomer, unassigned) [Compound 1], the “Hgb saturation higher compared to DMSO-treated cells” value ([1]; 2 hr) was “approximately 10%”, the p50 ([1]; after 1 hr, shifted from 29 mmHg) was 25 mmHg and the “Hemoglobin Saturation” value ([1]; incubation 1 hr, normalized to 1.00 (DMSO 1.18)) was 1.05. The “Hemoglobin Saturation” value ([1]; incubation 2 hr, normalized to 1.00 (DMSO 1.18)) was 1.00, the “Hemoglobin Saturation” value ([1]; incubation 3 hr, normalized to 1.00 (DMSO 1.30)) was 1.02 and the “testosterone and estradiol levels” value [2] was “no effect on estradiol and testosterone levels; also recorded: No effect on testosterone or estradiol levels; also recorded: no statistically significant changes and no clinically meaningful trends”. For the same compound, the “exposure under fed/fasted conditions” value [3] was “similar”, the “Any TEAE, n (%)” value ([4]; SCD 300 mg × 14 days (n = 7)) was 6 (86%) n (%) and the “Any serious adverse event (SAE), n (%)” value ([4]; SCD 300 mg × 14 days (n = 7)) was 0 n (%). For the same compound, the “Related to study drug, n (%)” value ([4]; SCD 300 mg × 14 days (n = 7)) was 2 (29%) n (%), the tolerability ([4]; SCD 400 mg QD, 84 days (12 weeks), open-label) was “well-tolerated” and the “serious adverse events / TEAEs leading to withdrawal” value ([4]; SCD SD cohort) was “No serious adverse events (SAEs) or TEAEs leading to pt withdrawal were reported”. The “Any TEAE, n (%)” value ([4]; SCD single 700 mg (N = 5)) was 2 (40) n (%), the “Related to study drug, n (%)” value ([4]; SCD single 700 mg (N = 5)) was 1 (20) n (%) and the “preclinical evidence of arrhythmia risk, mutagenicity, nonspecific binding” value [5] was “has not demonstrated any preclinical evidence of arrhythmia risk, mutagenicity, or nonspecific binding activity”. The “Hb difference versus placebo” value ([6]; 24 h) was about 0.9 g/dL and the “increase in Hb” value ([6]; 24 hours, range 0.3, 0.9) was 0.5 g/dL.
